Test results: ChEMBL document CHEMBL1201862, “PubChem BioAssay data set” (2004)
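Dose response: 5 concentrations. Exposure: 48 h. Format: 96-well plates. Endpoint: linear interpolation; highest concentration if not reached. Abbreviation: GI50, concentration required for 50% inhibition of growth.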 Active and inactive are the calls of the source. Rule as the data show it: active = GI50 up to about 1.1 µM and inactive = higher.

Tests used:
Assay in all cases: growth of human tumour cells (NCI), 48 h
SNB-19 = test system: SNB-19
MOLT-4 = test system: MOLT-4
PC-3 = test system: PC-3
HOP-62 = test system: HOP-62
UACC-62 = test system: UACC-62
SR = test system: SR
ACHN = test system: ACHN
U-251 = test system: U-251
KM12 = test system: KM12
DU-145 = test system: DU-145
BT-549 = test system: BT-549
SN12C = test system: SN12C
SNB-75 = test system: SNB-75
MCF7 = test system: MCF7
SF-295 = test system: SF-295
SK-MEL-5 = test system: SK-MEL-5
NCI-H226 = test system: NCI-H226
Malme-3M = test system: Malme-3M
M14 = test system: M14
T47D = test system: T47D
OVCAR-8 = test system: OVCAR-8
SK-MEL-2 = test system: SK-MEL-2
NCI-H522 = test system: NCI-H522
HCT-116 = test system: HCT-116
NCI-H23 = test system: NCI-H23
EKVX = test system: EKVX
MDA-MB-231 = test system: MDA-MB-231
OVCAR-5 = test system: OVCAR-5
CAKI-1 = test system: CAKI-1
A549 = test system: A549
HT-29 = test system: HT-29
COLO 205 = test system: COLO 205
SK-OV-3 = test system: SK-OV-3
OVCAR-4 = test system: OVCAR-4
TK-10 = test system: TK-10
UACC-257 = test system: UACC-257
HOP-92 = test system: HOP-92
A498 = test system: A498
LOX IMVI = test system: LOX IMVI
NCI/ADR-RES = test system: NCI/ADR-RES
SK-MEL-28 = test system: SK-MEL-28
MDA-N = test system: MDA-N
UO-31 = test system: UO-31
MDA-MB-435 = test system: MDA-MB-435
Hs-578T = test system: Hs-578T
K562 = test system: K562
SF-268 = test system: SF-268
HCT-15 = test system: HCT-15
786-0 = test system: 786-0
SW-620 = test system: SW-620
CCRF-CEM = test system: CCRF-CEM
OVCAR-3 = test system: OVCAR-3
SF-539 = test system: SF-539
RPMI-8226 = test system: RPMI-8226
NCI-H460 = test system: NCI-H460
HL-60 = test system: HL-60
IGROV-1 = test system: IGROV-1
HCC 2998 = test system: HCC 2998
RXF 393 = test system: RXF 393

Brc1ccc2c3c1[C@H]1O[C@H]1c1cccc(c1-3)[C@@H]1O[C@H]21
GI50 (SNB-19): 18 µM (inactive)
GI50 (MOLT-4): 3.61 µM (inactive)
GI50 (PC-3): 16.8 µM (inactive)
GI50 (HOP-62): 14.8 µM (inactive)
GI50 (UACC-62): 16.8 µM (inactive)
GI50 (SR): 20.2 µM (inactive)
GI50 (ACHN): 15.3 µM (inactive)
GI50 (U-251): 14 µM (inactive)
GI50 (KM12): 15.2 µM (inactive)
GI50 (DU-145): 13 µM (inactive)
GI50 (BT-549): 16.5 µM (inactive)
GI50 (SN12C): 17.6 µM (inactive)
GI50 (SNB-75): 13.2 µM (inactive)
GI50 (MCF7): 17.4 µM (inactive)
GI50 (SF-295): 15.5 µM (inactive)
GI50 (SK-MEL-5): 15 µM (inactive)
GI50 (NCI-H226): 24.5 µM (inactive)
GI50 (Malme-3M): 17.8 µM (inactive)
GI50 (M14): 17.2 µM (inactive)
GI50 (T47D): 10.3 µM (inactive)
GI50 (OVCAR-8): 15.6 µM (inactive)
GI50 (SK-MEL-2): 18.3 µM (inactive)
GI50 (NCI-H522): 10.4 µM (inactive)
GI50 (HCT-116): 13.2 µM (inactive)
GI50 (NCI-H23): 17.8 µM (inactive)
GI50 (EKVX): 18.6 µM (inactive)
GI50 (MDA-MB-231): 20.6 µM (inactive)
GI50 (OVCAR-5): 20.2 µM (inactive)
GI50 (CAKI-1): 17.8 µM (inactive)
GI50 (A549): 22 µM (inactive)
GI50 (HT-29): 8.11 µM (inactive)
GI50 (COLO 205): 19.3 µM (inactive)
GI50 (SK-OV-3): 19.1 µM (inactive)
GI50 (OVCAR-4): 15.1 µM (inactive)
GI50 (TK-10): 17.7 µM (inactive)
GI50 (UACC-257): 14.8 µM (inactive)
GI50 (HOP-92): 20.5 µM (inactive)
GI50 (A498): 21.2 µM (inactive)
GI50 (LOX IMVI): 2.82 µM (inactive)
GI50 (NCI/ADR-RES): 22.2 µM (inactive)
GI50 (SK-MEL-28): 15.9 µM (inactive)
GI50 (MDA-N): 16.9 µM (inactive)
GI50 (UO-31): 17.3 µM (inactive)
GI50 (MDA-MB-435): 15 µM (inactive)
GI50 (Hs-578T): 23.1 µM (inactive)
GI50 (K562): 2.65 µM (inactive)
GI50 (SF-268): 17.7 µM (inactive)
GI50 (HCT-15): 21.3 µM
GI50 (786-0): 12.4 µM (inactive)

Cc1ccc2nc(-c3ccc(N4C(=O)C(Cl)C4c4ccc(Cl)cc4)cc3)sc2c1 (stereo not given)
GI50 (SNB-19): 33.1 µM (inactive)
GI50 (PC-3): 10.5 µM (inactive)
GI50 (HOP-62): 20.6 µM (inactive)
GI50 (UACC-62): 15.3 µM (inactive)
GI50 (SR): 24.2 µM (inactive)
GI50 (ACHN): 22.4 µM (inactive)
GI50 (U-251): 19.2 µM (inactive)
GI50 (KM12): 16.8 µM (inactive)
GI50 (DU-145): 27.2 µM (inactive)
GI50 (BT-549): 36.7 µM (inactive)
GI50 (SN12C): 19.9 µM (inactive)
GI50 (SW-620): 21.5 µM (inactive)
GI50 (CCRF-CEM): 7.94 µM (inactive)
GI50 (MCF7): 14.6 µM (inactive)
GI50 (OVCAR-3): 16.3 µM (inactive)
GI50 (SF-295): 15.1 µM (inactive)
GI50 (SK-MEL-5): 14.2 µM (inactive)
GI50 (NCI-H226): 13.8 µM (inactive)
GI50 (Malme-3M): 28.8 µM (inactive)
GI50 (M14): 21.4 µM (inactive)
GI50 (T47D): 27.8 µM (inactive)
GI50 (OVCAR-8): 28.5 µM (inactive)
GI50 (SF-539): 17.5 µM (inactive)
GI50 (RPMI-8226): 11.5 µM (inactive)
GI50 (HCT-116): 21.6 µM (inactive)
GI50 (NCI-H23): 21.6 µM (inactive)
GI50 (EKVX): 2.62 µM (inactive)
GI50 (MDA-MB-231): 13.5 µM (inactive)
GI50 (OVCAR-5): 18.4 µM (inactive)
GI50 (CAKI-1): 15.5 µM (inactive)
GI50 (A549): 17.3 µM (inactive)
GI50 (HT-29): 1.95 µM (inactive)
GI50 (COLO 205): 14.6 µM (inactive)
GI50 (SK-OV-3): 12.7 µM (inactive)
GI50 (OVCAR-4): 1.95 µM (inactive)
GI50 (TK-10): 16.4 µM (inactive)
GI50 (UACC-257): 25.1 µM (inactive)
GI50 (HOP-92): 0.137 µM (active)
GI50 (NCI-H460): 21.9 µM (inactive)
GI50 (LOX IMVI): 5.35 µM (inactive)
GI50 (HL-60): 29.9 µM (inactive)
GI50 (NCI/ADR-RES): 18.5 µM (inactive)
GI50 (SK-MEL-28): 8.75 µM (inactive)
GI50 (MDA-N): 17.9 µM (inactive)
GI50 (UO-31): 21.4 µM (inactive)
GI50 (MDA-MB-435): 17.4 µM (inactive)
GI50 (Hs-578T): 23.3 µM (inactive)
GI50 (K562): 24.5 µM (inactive)
GI50 (SF-268): 22.8 µM (inactive)
GI50 (HCT-15): 27.3 µM
GI50 (786-0): 21.9 µM (inactive)

CN(C)/N=N/c1nc2c(c(=O)n(C)c(=O)n2C)n1C
GI50 (SNB-19): > 100 µM (inactive)
GI50 (MOLT-4): > 100 µM (inactive)
GI50 (PC-3): > 100 µM (inactive)
GI50 (HOP-62): > 100 µM (inactive)
GI50 (UACC-62): > 100 µM (inactive)
GI50 (IGROV-1): > 100 µM (inactive)
GI50 (SR): 4.04 µM (inactive)
GI50 (ACHN): > 100 µM (inactive)
GI50 (U-251): > 100 µM (inactive)
GI50 (KM12): > 100 µM (inactive)
GI50 (DU-145): > 100 µM (inactive)
GI50 (BT-549): > 100 µM (inactive)
GI50 (SN12C): > 100 µM (inactive)
GI50 (SW-620): > 100 µM (inactive)
GI50 (CCRF-CEM): > 100 µM (inactive)
GI50 (SNB-75): > 100 µM (inactive)
GI50 (MCF7): 7.5 µM (inactive)
GI50 (OVCAR-3): > 100 µM (inactive)
GI50 (SF-295): > 100 µM (inactive)
GI50 (SK-MEL-5): > 100 µM (inactive)
GI50 (NCI-H226): > 100 µM (inactive)
GI50 (HCC 2998): > 100 µM (inactive)
GI50 (Malme-3M): > 100 µM (inactive)
GI50 (M14): > 100 µM (inactive)
GI50 (T47D): 14.3 µM (inactive)
GI50 (OVCAR-8): > 100 µM (inactive)
GI50 (SK-MEL-2): > 100 µM (inactive)
GI50 (NCI-H522): > 100 µM (inactive)
GI50 (RPMI-8226): > 100 µM (inactive)
GI50 (HCT-116): > 100 µM (inactive)
GI50 (EKVX): > 100 µM (inactive)
GI50 (MDA-MB-231): > 100 µM (inactive)
GI50 (RXF 393): > 100 µM (inactive)
GI50 (OVCAR-5): > 100 µM (inactive)
GI50 (CAKI-1): > 100 µM (inactive)
GI50 (A549): > 100 µM (inactive)
GI50 (HT-29): > 100 µM (inactive)
GI50 (COLO 205): > 100 µM (inactive)
GI50 (SK-OV-3): > 100 µM (inactive)
GI50 (OVCAR-4): > 100 µM (inactive)
GI50 (TK-10): > 100 µM (inactive)
GI50 (UACC-257): > 100 µM (inactive)
GI50 (NCI-H460): > 100 µM (inactive)
GI50 (A498): > 100 µM (inactive)
GI50 (LOX IMVI): > 100 µM (inactive)
GI50 (NCI/ADR-RES): > 100 µM (inactive)
GI50 (SK-MEL-28): > 100 µM (inactive)
GI50 (MDA-N): > 100 µM (inactive)
GI50 (UO-31): > 100 µM (inactive)
GI50 (MDA-MB-435): > 100 µM (inactive)
GI50 (Hs-578T): > 100 µM (inactive)
GI50 (K562): > 100 µM (inactive)
GI50 (SF-268): > 100 µM (inactive)
GI50 (HCT-15): > 100 µM
GI50 (786-0): > 100 µM (inactive)
